Data reported in article PMC3880124 (MedChemComm, 2013).
Read-outs that look alike come from different tables or passages of the source.

Key:
SK2 [1] = molecular target: T1, SK2 (Homo sapiens, UniProt Q9NRA0); test: Inhibition of SK2 activity; assay type: biochemical; conditions: compound at 50 μM; Sph 10 μM
T1 sequence (Q9NRA0 1-654): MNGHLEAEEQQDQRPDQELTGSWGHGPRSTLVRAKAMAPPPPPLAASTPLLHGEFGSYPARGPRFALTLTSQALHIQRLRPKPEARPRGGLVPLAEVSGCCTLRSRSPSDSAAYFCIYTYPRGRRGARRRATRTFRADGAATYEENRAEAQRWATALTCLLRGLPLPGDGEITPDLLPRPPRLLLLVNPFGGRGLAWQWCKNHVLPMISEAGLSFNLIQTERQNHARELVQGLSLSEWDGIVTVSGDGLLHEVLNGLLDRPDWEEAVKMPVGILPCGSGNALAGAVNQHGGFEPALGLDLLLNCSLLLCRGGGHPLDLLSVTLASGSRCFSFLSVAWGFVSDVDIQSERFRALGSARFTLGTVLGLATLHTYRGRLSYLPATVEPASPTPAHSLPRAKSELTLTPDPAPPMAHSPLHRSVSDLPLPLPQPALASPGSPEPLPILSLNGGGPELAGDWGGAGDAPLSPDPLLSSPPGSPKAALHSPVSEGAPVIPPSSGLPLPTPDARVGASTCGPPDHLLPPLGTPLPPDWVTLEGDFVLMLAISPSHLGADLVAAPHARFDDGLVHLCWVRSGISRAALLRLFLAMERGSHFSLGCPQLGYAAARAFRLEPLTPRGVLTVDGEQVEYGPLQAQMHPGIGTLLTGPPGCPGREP

SK1 [2] = molecular target: T2, SK1 (Homo sapiens, UniProt Q9NYA1); test: Test of compounds as SK1 substrates; assay type: biochemical; conditions: compound at 50 μM
T2 sequence (Q9NYA1 whole entry): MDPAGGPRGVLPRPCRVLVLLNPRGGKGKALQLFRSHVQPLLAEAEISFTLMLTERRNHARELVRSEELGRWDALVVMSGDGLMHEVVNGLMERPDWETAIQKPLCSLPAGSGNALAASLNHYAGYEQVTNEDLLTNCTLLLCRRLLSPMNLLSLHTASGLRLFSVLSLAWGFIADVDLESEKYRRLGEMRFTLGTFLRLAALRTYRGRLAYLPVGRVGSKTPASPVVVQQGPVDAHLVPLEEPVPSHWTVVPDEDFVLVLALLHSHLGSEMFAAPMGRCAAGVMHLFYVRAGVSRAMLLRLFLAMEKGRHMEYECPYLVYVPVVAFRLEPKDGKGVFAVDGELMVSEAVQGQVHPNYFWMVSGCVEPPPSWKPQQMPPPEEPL

SK2 [3] = molecular target: T1, SK2; test: Test of compounds as SK2 substrates; assay type: biochemical; conditions: compound at 50 μM
PASMC = conditions: 24 h
SK1 [4] = molecular target: T2, SK1; test: SK1 expression in PASMC; conditions: 10 μM, 24 h, western blot
SK1 [5] = molecular target: T2, SK1; test: Inhibition of SK1 activity; conditions: compound at 50 μM; Sph 3 μM

SK2 inhibition in words (SK2 [1])	substrate of SK1 (SK1 [2])	substrate of SK2 (SK2 [3])	SK1 inhibition in words (SK1 [5])	Structure (SMILES)	other results
less effective	weak substrates of SK1	very weak substrates of SK2		CCCCCCCCCCCCCCC[C@@H](O)[C@H](CO)NC(=S)Nc1cccc(F)c1 [F-01]	
		very weak substrates of SK2		CCCCCCCCCCCCCCC[C@@H](O)[C@H](CO)NC(=S)Nc1cccc(C(F)(F)F)c1 [F-02]	effect on SK1 expression (SK1 [4]): without effect on SK1 expression
nonselective SK inhibitor	weak substrates of SK1		nonselective SK inhibitor	CCCCCCCCCCCCCCC[C@@H](O)[C@H](C)[N+](C)(C)C.Cc1ccc(S(=O)(=O)[O-])cc1 [77-13]	
			more effective SK1 inhibitors	CCCCCCCCCCCCCCC[C@@H](O)[C@H](C)N [55-21, (2S,3R)-2-amino-3-octadecanol]	effect on DNA synthesis (PASMC; 100 nM and 1 μM): significantly inhibited DNA synthesis; effect on SK1 expression (SK1 [4]): reduced the expression of SK1

Second part, the molecule before the results:

Structure (SMILES)	SK2 inhibition in words (SK2 [1])	substrate of SK1 (SK1 [2])	substrate of SK2 (SK2 [3])	SK1 inhibition in words (SK1 [5])	other results
CCCCCCCCCCCCc1ccc(C(=O)N2CCC[C@H]2C(=N)N)cc1.Cl [VPC96091, reference compound]	abolished SK1 and SK2 activity				effect on DNA synthesis (PASMC; 300 nM): ineffective at reducing DNA synthesis
CCCCCCCCCCCCCC[C@H]1OC[C@H](NC(=S)Nc2c(F)c(F)c(F)c(F)c2F)[C@@H]1O [67-341]		weak substrates of SK1			
CCCCCCCCCCCCC/C=C\[C@@H](O)[C@@H](N)CO [67-302]		weak substrates of SK1	efficiently phosphorylated by SK2		
Cc1cc(CS(=O)(=O)c2ccccc2)cc(OCc2ccc(CN3CCC[C@@H]3CO)cc2)c1 [PF-543]					effect on DNA synthesis (PASMC; 10 nM and 100 nM): ineffective at reducing DNA synthesis
CCCCCCCCCCCCC/C=C/[C@@H](O)[C@H](CO)NC(=S)Nc1ccc(C(F)(F)F)cc1 [67-330]	weak inhibitor of both SK isoforms			weak inhibitor of both SK isoforms	
CCCCCCCCCCCCCCOC[C@@H](O)[C@H](C)N(C)C [77-7]				effective SK1 inhibitor	
